Laboratory results published in ChEMBL document CHEMBL1201862, “PubChem BioAssay data set” (2004).
Values joined by “and” are separate entries in the source; they are usually repeats but may differ in a detail not shown here. Equal values may be shown once.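 Five compound concentrations were applied to cells in 96-well plates for 48 hours; endpoints were derived by simple linear interpolation of the resulting dose-response curve. GI50 marks 50% less growth.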 Active and inactive are the calls of the source. No stated cut-off is given here; in the data, active = GI50 up to about 1.1 µM and inactive = higher.

Tests used:
Experiment in all cases: growth of human tumour cells (NCI), 48 h
M14 = tested on: M14
SF-295 = tested on: SF-295
OVCAR-3 = tested on: OVCAR-3
K562 = tested on: K562
HL-60 = tested on: HL-60
MCF7 = tested on: MCF7
NCI-H23 = tested on: NCI-H23
SK-MEL-2 = tested on: SK-MEL-2
NCI/ADR-RES = tested on: NCI/ADR-RES
HCC 2998 = tested on: HCC 2998
RXF 393 = tested on: RXF 393
SNB-75 = tested on: SNB-75
EKVX = tested on: EKVX
HOP-92 = tested on: HOP-92
NCI-H460 = tested on: NCI-H460
SF-539 = tested on: SF-539
MOLT-4 = tested on: MOLT-4
BT-549 = tested on: BT-549
HOP-62 = tested on: HOP-62
IGROV-1 = tested on: IGROV-1

Structure (SMILES) | GI50 (M14) | GI50 (SF-295) | GI50 (OVCAR-3) | GI50 (K562) | GI50 (HL-60) | GI50 (MCF7) | GI50 (NCI-H23) | GI50 (SK-MEL-2) | GI50 (NCI/ADR-RES) | GI50 (HCC 2998) | GI50 (RXF 393) | GI50 (SNB-75) | GI50 (EKVX) | GI50 (HOP-92) | GI50 (NCI-H460) | GI50 (SF-539) | GI50 (MOLT-4) | GI50 (BT-549) | GI50 (HOP-62) | GI50 (IGROV-1)
Cn1c(=O)n2n(c1=O)Cc1cccc3cccc(c13)C2 | > 100 µM (inactive) | > 100 µM (inactive) | > 100 µM (inactive) | > 100 µM (inactive) | 1.82 µM (inactive) | > 100 µM (inactive) | > 100 µM (inactive) | > 100 µM (inactive) | > 100 µM (inactive) | > 100 µM (inactive) | 53.6 µM (inactive) | > 100 µM (inactive) | > 100 µM (inactive) | > 100 µM (inactive) | > 100 µM (inactive) | > 100 µM (inactive) | > 100 µM (inactive) | > 100 µM (inactive) | – | –
COC(=O)CNC(=O)C(Cc1ccccc1)NC(=O)c1ccc(-c2ccc(Cl)cc2Cl)o1 (stereo not drawn) | 30.9 µM (inactive) | 18.7 µM (inactive) | 22.4 µM (inactive) | 21.3 µM (inactive) | 12.2 µM (inactive) | 17.8 µM (inactive) | 23.7 µM (inactive) | 28.3 µM (inactive) | 21.8 µM (inactive) | – | 18.4 µM (inactive) | 30.9 µM (inactive) | 20.3 µM (inactive) | 12.4 µM (inactive) | 15.2 µM (inactive) | 36.3 µM (inactive) | 14.3 µM (inactive) | 26.4 µM (inactive) | 26.8 µM (inactive) | 18.7 µM (inactive)
Cc1ccc2[nH]c3c(c2c1)C1CCC(C(C)(C)C)CC1C1C(=O)N(c2ccc(Oc4ccccc4)cc2)C(=O)C31 (stereo not drawn) | 48.8 µM (inactive) | 26.6 µM (inactive) | 11.5 µM (inactive) | 8.91 µM (inactive) | 2.57 µM (inactive) | 56.9 µM (inactive) | 19.3 µM (inactive) | 34.9 µM (inactive) | 20.5 µM (inactive) | 39.3 µM (inactive) | 7.55 µM (inactive) | 2.32 µM (inactive) | 27 µM (inactive) | 14.4 µM (inactive) | 16 µM (inactive) | – | 2.77 µM (inactive) | 20 µM (inactive) | 22.4 µM (inactive) | 30.8 µM (inactive)
COc1ccc(C2Oc3c(OC)cc(CCCO)cc3C2CO)cc1OC (stereo not drawn) | > 100 µM (inactive) | 50.4 µM (inactive) and 70.8 µM (inactive) | > 100 µM (inactive) | 20.6 µM (inactive) and 38.5 µM (inactive) | 43.8 µM (inactive) and 65.3 µM (inactive) | 27.6 µM (inactive) and 44.7 µM (inactive) | – | 95.1 µM (inactive) | 69 µM (inactive) | > 100 µM (inactive) | > 100 µM (inactive) | > 100 µM (inactive) and 77.3 µM (inactive) | 61.4 µM (inactive) and 39.9 µM (inactive) | 56.5 µM (inactive) | > 100 µM (inactive) | > 100 µM (inactive) | 42.5 µM (inactive) and 26.9 µM (inactive) | 96.2 µM (inactive) and 50.7 µM (inactive) | > 100 µM (inactive) | > 100 µM (inactive)
C#CCn1c(=O)c(I)cn(/C(=C/C(=O)OCC)C(=O)OCC)c1=O | 1.78 µM (inactive) | 39.7 µM (inactive) | 1.78 µM (inactive) | 0.659 µM (active) | 1.64 µM (inactive) | 2.12 µM (inactive) | 15.3 µM (inactive) | 15.5 µM (inactive) | 18.9 µM (inactive) | – | 3.61 µM (inactive) | 17.2 µM (inactive) | 2.94 µM (inactive) | 1.75 µM (inactive) | 23.4 µM (inactive) | 7.21 µM (inactive) | < 0.0195 µM (active) | 11.5 µM (inactive) | 17.5 µM (inactive) | 15.7 µM (inactive)
Brc1ccc(-c2ccc(-c3ccc(-c4ccc(Br)s4)s3)s2)s1 | > 100 µM (inactive) | > 100 µM (inactive) | > 100 µM (inactive) | > 100 µM (inactive) | > 100 µM (inactive) | > 100 µM (inactive) | > 100 µM (inactive) | – | > 100 µM (inactive) | > 100 µM (inactive) | > 100 µM (inactive) | > 100 µM (inactive) | > 100 µM (inactive) | > 100 µM (inactive) | > 100 µM (inactive) | > 100 µM (inactive) | > 100 µM (inactive) | > 100 µM (inactive) | > 100 µM (inactive) | > 100 µM (inactive)
O=C1Nc2cccc(Cl)c2/C1=C\c1cccnc1 | 6.61 µM (inactive) | 16.7 µM (inactive) | 5.64 µM (inactive) | 5.85 µM (inactive) | 3.72 µM (inactive) | 4.02 µM (inactive) | 3.75 µM (inactive) | 11.1 µM (inactive) | 4.43 µM (inactive) | 2.15 µM (inactive) | 2.83 µM (inactive) | 15.5 µM (inactive) | 17.6 µM (inactive) | 27.7 µM (inactive) | 8.22 µM (inactive) | 12.4 µM (inactive) | 4.23 µM (inactive) | 8.53 µM (inactive) | 6.12 µM (inactive) | –
CC(=O)Oc1c2oc3ccc(Cl)cc3c(=O)c2c(O)c2ccsc12 | > 100 µM (inactive) | > 100 µM (inactive) | > 100 µM (inactive) | 60.7 µM (inactive) | > 100 µM (inactive) | > 100 µM (inactive) | > 100 µM (inactive) | > 100 µM (inactive) | > 100 µM (inactive) | > 100 µM (inactive) | > 100 µM (inactive) | 52.4 µM (inactive) | > 100 µM (inactive) | > 100 µM (inactive) | > 100 µM (inactive) | > 100 µM (inactive) | – | 51.4 µM (inactive) | > 100 µM (inactive) | –
CCC/C(Cl)=N/OC(=O)Nc1cccc(F)c1 | 3.94 µM (inactive) | 17.5 µM (inactive) | 2.61 µM (inactive) | 1.08 µM (active) | 1.28 µM (inactive) | 2.77 µM (inactive) | 16.7 µM (inactive) | 18.7 µM (inactive) | 6.04 µM (inactive) | 15.6 µM (inactive) | 3.23 µM (inactive) | 3.4 µM (inactive) | 2.46 µM (inactive) | 1.6 µM (inactive) | 19 µM (inactive) | – | 1.89 µM (inactive) | 2.32 µM (inactive) | 16.4 µM (inactive) | 13.2 µM (inactive)
CC(=O)OCC1OC(n2c3c(cc(C#N)c2=S)CCCCCC3)C(OC(C)=O)C(OC(C)=O)C1OC(C)=O (stereo not drawn) | > 100 µM (inactive) | > 100 µM (inactive) | > 100 µM (inactive) | 32.1 µM (inactive) | 36.2 µM (inactive) | > 100 µM (inactive) | > 100 µM (inactive) | > 100 µM (inactive) | > 100 µM (inactive) | 27.5 µM (inactive) | > 100 µM (inactive) | 27.2 µM (inactive) | – | > 100 µM (inactive) | 42.2 µM (inactive) | > 100 µM (inactive) | 26.1 µM (inactive) | > 100 µM (inactive) | > 100 µM (inactive) | > 100 µM (inactive)
CN(C)c1ccc(-c2c(C#N)c(O)n(NS(=O)(=O)c3ccccc3)c(=O)c2C#N)cc1 | 0.643 µM (active) | – | – | > 100 µM (inactive) | > 100 µM (inactive) | > 100 µM (inactive) | – | > 100 µM (inactive) | > 100 µM (inactive) | > 100 µM (inactive) | > 100 µM (inactive) | > 100 µM (inactive) | > 100 µM (inactive) | > 100 µM (inactive) | > 100 µM (inactive) | > 100 µM (inactive) | > 100 µM (inactive) | > 100 µM (inactive) | > 100 µM (inactive) | > 100 µM (inactive)
CCOC(=O)c1c(O)cn2c1[nH]c1cccc3cccc2c31 | > 100 µM (inactive) | 87.5 µM (inactive) | – | > 100 µM (inactive) | 57.3 µM (inactive) | 49.2 µM (inactive) | 62.4 µM (inactive) | > 100 µM (inactive) | > 100 µM (inactive) | 64.7 µM (inactive) | 41.5 µM (inactive) | 37.4 µM (inactive) | > 100 µM (inactive) | 51.4 µM (inactive) | 92.7 µM (inactive) | – | 44.2 µM (inactive) | > 100 µM (inactive) | 35.6 µM (inactive) | 62.2 µM (inactive)
c1ccc2nc3c(nc2c1)sc1nc2ccccc2n13 | > 100 µM (inactive) | 45 µM (inactive) | > 100 µM (inactive) | > 100 µM (inactive) | > 100 µM (inactive) | 0.933 µM (active) | > 100 µM (inactive) | – | > 100 µM (inactive) | > 100 µM (inactive) | 28.4 µM (inactive) | > 100 µM (inactive) | > 100 µM (inactive) | 57 µM (inactive) | > 100 µM (inactive) | > 100 µM (inactive) | > 100 µM (inactive) | > 100 µM (inactive) | – | > 100 µM (inactive)
COC(=O)C12CCC(C(F)(F)C1=O)C2(C)C (stereo not drawn) | > 100 µM (inactive) | > 100 µM (inactive) | > 100 µM (inactive) | – | > 100 µM (inactive) | > 100 µM (inactive) | > 100 µM (inactive) | > 100 µM (inactive) | > 100 µM (inactive) | > 100 µM (inactive) | > 100 µM (inactive) | > 100 µM (inactive) | – | > 100 µM (inactive) | > 100 µM (inactive) | > 100 µM (inactive) | > 100 µM (inactive) | > 100 µM (inactive) | > 100 µM (inactive) | > 100 µM (inactive)
COC(=O)c1c(O)ccc2[nH]c3c(O)c4ccccc4cc3c12 | 30.2 µM (inactive) | 18.9 µM (inactive) | 15.9 µM (inactive) | 47 µM (inactive) | 14.1 µM (inactive) | 16 µM (inactive) | 23 µM (inactive) | 32.4 µM (inactive) | 29.9 µM (inactive) | 13.9 µM (inactive) | 31.3 µM (inactive) | – | 16.8 µM (inactive) | 29.6 µM (inactive) | 24.1 µM (inactive) | 21.4 µM (inactive) | 37.2 µM (inactive) | 39.3 µM (inactive) | 22.4 µM (inactive) | 16.7 µM (inactive)
